{"source": "patent US20160082105A1", "about": "“Antibody Buffering of a Ligand in Vivo” (ARROWSMITH TECHNOLOGIES CORPORATION, priority 2004, published 2016)", "key": {"[1]": {"assay": "Antibody buffering in plasma: total Ox after jugular infusion", "format": "in vivo, rat", "settings": "for t1/2 of Ox (FIG. 6): 5 animals per point", "text": "Timepoints were again taken and analyzed as above.\nTo determine its pharmacokinetic behavior, tritiated Ox was infused into a rat through a jugular cannula, and elimination of Ox was followed through blood sampling, separation of the plasma by centrifugation, and scintillation counting of the plasma."}, "[2]": {"procedure": "Samples were prepared for injection: 4.54 nmol anti-Ox antibody and 2.27 nmol Ox; 4.54 nmol D1.3 control antibody and 2.27 nmol Ox; or no antibody and 2.27 nmol Ox. Each sample was diluted to 1 ml with sterile PBS. The samples were warmed to 37° C., and then infused over 1 minute through the jugular vein cannula in Sprague-Dawley rats as described above. At various timepoints, 0.45 ml of blood was withdrawn and immediately centrifuged to separate out the plasma. 100 μl of plasma were counted directly by placing the plasma into 5 ml of Scintiverse II and counting in a Beckman LS6500 Scintillation Counter. 100 μl plasma was used in bound vs. free Ox experiments described below. For some rats, 0.1 ml of blood minus plasma was analyzed. These samples were first decolorized by incubating at 40° C. in 0.3 ml of Scintigest (Fisher Scientific):isopropanol (1:2 v/v) for one hour. Then 0.2 ml of 30% H2O2 was added dropwise, and the solution was incubated at room temperature for 15 minutes. Pipetting up and down was needed to break up some clumps. The solution was incubated at 40° C. before placing it into 5 ml of Scintiverse II. The samples were allowed to sit overnight before counting to reduce chemiluminescence. Control samples were prepared using known amounts of Ox to aid in analysis.\nThe rat anti-mouse kappa antibody 187.1 (see Example 1) was isolated from spent culture medium and purified by passage over a Protein A-Sepharose affinity column. Ten g of CNBr-activated Sepharose 4 Fast Flow (Amersham Biosciences) were washed and coupled with 187.1 according to manufacturer's protocol. Two mg 187.1 per 10 g of swelled resin were used.\nDuring the antibody buffering experiments, 100 μl of plasma was loaded onto the 187.1 column immediately after centrifugation. Three ml of PBS followed by three ml of 0.2 M glycine (pH 2.5) were then applied onto the column as described in Example 1. All PBS fractions and all glycine fractions were collected separately for each timepoint and dried down in the SpeedVac. The residue was resuspended in 150 μl PBS and then transferred to a scintillation vial with 5 ml Scintiverse II for counting.\nSamples of NQ11/7.12 and Ox were prepared and infused into Sprague-Dawley rats as described above. Blood samples (0.4 ml) were taken at time 1, 10, 20, 50, 90, and 120 minutes. 100 μl plasma were counted directly and 100 μl were placed on a 187.1 column to separate bound and free Ox. At 24 hours and again at 48 hours following the first administration, 2.27 nmol Ox in 0.5 ml PBS was infused over 1 minute through the jugular cannula. Timepoints were again taken and analyzed as above.\nBound and free forms of Ox in plasma fractions from the animals were separated on an affinity column. […] An immobilized rat anti-mouse kappa antibody was used to trap antibody-Ox complexes while free Ox eluted from the column with a PBS wash (free Ox fraction)."}, "[3]": {"settings": "Ox alone re-administered at 24 hours and 48 hours after a single NQ11/7.12 + Ox infusion"}, "[4]": {"settings": "Ox with D1.3, biphasic elimination"}, "[5]": {"settings": "Ox administered alone or with D1.3"}}, "note": "Where two headings read alike, the source gives them in different places.", "data": [{"smiles": "O=C(O)CCCNC=C1N=C(c2ccccc2)OC1=O", "note": "[Ox, 2-phenyl-oxazol-5-one-γ-amino butyrate]", "values": [{"measurement": "increase in Ox half-life in plasma with anti-Ox antibody", "setting": "[1]; NQ11/7.12 vs D1.3", "value": "seventeen-fold"}, {"measurement": "t1/2 of Ox (FIG. 6)", "setting": "[1]; Ox administered with NQ11/7.12, jugular vein cannula", "value": 19.7, "unit": "min"}, {"measurement": "t1/2 of Ox (FIG. 6)", "setting": "[1]; Ox administered with control antibody D1.3, jugular vein cannula", "value": 1.2, "unit": "min"}, {"measurement": "total Ox pharmacokinetic lifetime in plasma, long term buffering", "setting": "[1]; [3]", "value": "only small changes"}, {"measurement": "Ox elimination half-life from plasma", "setting": "[1]; Ox alone, jugular infusion", "value": 1.2, "unit": "min"}, {"measurement": "adverse effects in the animal subjects", "setting": "[1]; Ox infused with NQ11/7.12 or D1.3, rats", "value": "No adverse effects were noted"}, {"measurement": "Ox elimination half-life from plasma, major (fast) phase", "setting": "[1]; [4]", "value": "1.2 ± 0.2", "unit": "min"}, {"measurement": "Ox elimination half-life from plasma, smaller (slow) phase", "setting": "[1]; [4]", "value": "10 ± 2", "unit": "min"}, {"measurement": "Ox elimination half-life from plasma", "setting": "[1]; Ox with twice the molar amount of NQ11/7.12", "value": "20 ± 2", "unit": "min"}, {"measurement": "Ox concentration in the cellular fraction of blood, of the total Ox concentration in the plasma", "setting": "[1]; rat, in vivo", "value": "1-2%"}, {"measurement": "free Ox elimination half-life in plasma", "setting": "[2]; [5]", "value": "6.0 ± 1", "unit": "min"}, {"measurement": "initial free Ox concentration in plasma", "setting": "[2]; [5]", "value": 6.8, "unit": "nM"}, {"measurement": "free Ox concentration in plasma after an hour", "setting": "[2]; Ox administered with NQ11/7.12", "value": 0.8, "unit": "nM"}, {"measurement": "free Ox elimination half-life in plasma", "setting": "[2]; Ox administered with NQ11/7.12", "value": "41 ± 6", "unit": "min"}, {"measurement": "initial free Ox concentration in plasma", "setting": "[2]; Ox administered with NQ11/7.12", "value": 2.2, "unit": "nM"}, {"measurement": "decline of free Ox concentration in plasma compared with NQ11/7.12", "setting": "[2]; Ox administered with NQ16/113.8 or NQ22/16.4", "value": "declined much more rapidly"}, {"measurement": "free Ox concentration in plasma, long term buffering", "setting": "[2]; [3]", "value": "quickly normalized"}, {"measurement": "fraction of unbuffered Ox eliminated from plasma before the first timepoint", "setting": "[2]; Ox without anti-Ox antibody", "value": "more than half"}]}]}
